Measured values reported in PubChem BioAssay AID1918937 (Molecular Pharmacology Branch, DTP, NCI, 2023).
“And” between values parts separate entries of the source, which are not always exact repeats. Identical values can stand only once.

Test system: 521955-158-R2-J5-PDC complex spheroid viability
Test: Anticancer human tumor 521955-158-R2-J5-PDC patient-derived pancreatic carcinoma cell line growth inhibition
Details: for viability, T/C: stronger effect = lower value
How it was run: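 Drug combinations with the LSD1 inhibitor iadademstat tested on tumor cells co-cultured as spheroids with endothelial cells and mesenchymal stem cells. Concentrations descended in half-log increments from clinical Cmax or 10 microM.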

[1] = curve of first compound, second compound 0.1 µM
[2] = curve of first compound, second compound 0.316 µM
[3] = curve of first compound, second compound 1 µM
[4] = curve of first compound, second compound 3.16 µM
[5] = curve of first compound, second compound 10 µM
[6] = second compound 0.1 µM, first compound 0.00316 µM
[7] = second compound 0.1 µM, first compound 0.01 µM
[8] = second compound 0.1 µM, first compound 0.0316 µM
[9] = second compound 0.1 µM, first compound 0.1 µM
[10] = second compound 0.1 µM, first compound 0.316 µM
[11] = second compound 0.1 µM, first compound 1 µM
[12] = second compound 0.316 µM, first compound 0.00316 µM
[13] = second compound 0.316 µM, first compound 0.01 µM
[14] = second compound 0.316 µM, first compound 0.0316 µM
[15] = second compound 0.316 µM, first compound 0.1 µM
[16] = second compound 0.316 µM, first compound 0.316 µM
[17] = second compound 0.316 µM, first compound 1 µM
[18] = second compound 1 µM, first compound 0.00316 µM
[19] = second compound 1 µM, first compound 0.01 µM
[20] = second compound 1 µM, first compound 0.0316 µM
[21] = second compound 1 µM, first compound 0.1 µM
[22] = second compound 1 µM, first compound 0.316 µM
[23] = second compound 1 µM, first compound 1 µM
[24] = second compound 3.16 µM, first compound 0.00316 µM
[25] = second compound 3.16 µM, first compound 0.01 µM
[26] = second compound 3.16 µM, first compound 0.0316 µM
[27] = second compound 3.16 µM, first compound 0.1 µM
[28] = second compound 3.16 µM, first compound 0.316 µM
[29] = second compound 3.16 µM, first compound 1 µM
[30] = second compound 10 µM, first compound 0.00316 µM
[31] = second compound 10 µM, first compound 0.01 µM
[32] = second compound 10 µM, first compound 0.0316 µM
[33] = second compound 10 µM, first compound 0.1 µM
[34] = second compound 10 µM, first compound 0.316 µM
[35] = second compound 10 µM, first compound 1 µM
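Further: spheroids exposed to agents for seven days.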
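Wherever viability, T/C is given: percent of DMSO vehicle control luminescence viability.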

Structure (SMILES): CC1COCCN1c1cc(-c2ccnn2C)c2ccnc(-c3ccn[nH]3)c2n1 (stereo not given) + NC1CC1c1ccc(-c2cccc(O)c2)cc1
- IC50 [1]: < 3.16 nM
- IC50 [2]: < 3.16 nM
- IC50 [3]: < 3.16 nM
- IC50 [4]: < 3.16 nM
- IC50 [5]: < 3.16 nM
- viability, T/C [6]: 15.7%
- viability, T/C [7]: 16.1%
- viability, T/C [8]: 17.3%
- viability, T/C [9]: 25.2%
- viability, T/C [10]: 29.5%
- viability, T/C [11]: 10.9%
- viability, T/C [12]: 23.3%
- viability, T/C [13]: 16.2%
- viability, T/C [14]: 17.9%
- viability, T/C [15]: 26.1%
- viability, T/C [16]: 28.5%
- viability, T/C [17]: 10.6%
- viability, T/C [18]: 22.9%
- viability, T/C [19]: 19.6%
- viability, T/C [20]: 18.9%
- viability, T/C [21]: 25.4%
- viability, T/C [22]: 26.6%
- viability, T/C [23]: 10.6%
- viability, T/C [24]: 22.8%
- viability, T/C [25]: 19.7%
- viability, T/C [26]: 21.1%
- viability, T/C [27]: 24.9%
- viability, T/C [28]: 26.1%
- viability, T/C [29]: 9.32%
- viability, T/C [30]: 26.7%
- viability, T/C [31]: 22.6%
- viability, T/C [32]: 22.5%
- viability, T/C [33]: 26.9%
- viability, T/C [34]: 22.4%
- viability, T/C [35]: 9.48%

Structure (SMILES): Nc1ccn(C2OC(CO)C(O)C2(F)F)c(=O)n1 (stereo not given) + NC1CC1c1ccc(-c2cccc(O)c2)cc1
- IC50 [1]: 66.8 nM
- IC50 [2]: 70.8 nM
- IC50 [3]: 69.9 nM
- IC50 [4]: 57 nM
- IC50 [5]: 36.5 nM
- viability, T/C (second compound 0.1 µM, first compound 0.000949 µM): 86.9%
- viability, T/C (second compound 0.1 µM, first compound 0.003 µM): 86.4%
- viability, T/C (second compound 0.1 µM, first compound 0.00949 µM): 84%
- viability, T/C (second compound 0.1 µM, first compound 0.03 µM): 66.8%
- viability, T/C (second compound 0.1 µM, first compound 0.0949 µM): 42.8%
- viability, T/C (second compound 0.1 µM, first compound 0.3 µM): 23.4%
- viability, T/C (second compound 0.316 µM, first compound 0.000949 µM): 83.2%
- viability, T/C (second compound 0.316 µM, first compound 0.003 µM): 89.1%
- viability, T/C (second compound 0.316 µM, first compound 0.00949 µM): 79.1%
- viability, T/C (second compound 0.316 µM, first compound 0.03 µM): 66%
- viability, T/C (second compound 0.316 µM, first compound 0.0949 µM): 44.9%
- viability, T/C (second compound 0.316 µM, first compound 0.3 µM): 24.9%
- viability, T/C (second compound 1 µM, first compound 0.000949 µM): 90.8%
- viability, T/C (second compound 1 µM, first compound 0.003 µM): 84%
- viability, T/C (second compound 1 µM, first compound 0.00949 µM): 87.3%
- viability, T/C (second compound 1 µM, first compound 0.03 µM): 63.3%
- viability, T/C (second compound 1 µM, first compound 0.0949 µM): 45.8%
- viability, T/C (second compound 1 µM, first compound 0.3 µM): 26.5%
- viability, T/C (second compound 3.16 µM, first compound 0.000949 µM): 90.1%
- viability, T/C (second compound 3.16 µM, first compound 0.003 µM): 94.8%
- viability, T/C (second compound 3.16 µM, first compound 0.00949 µM): 92%
- viability, T/C (second compound 3.16 µM, first compound 0.03 µM): 67.7%
- viability, T/C (second compound 3.16 µM, first compound 0.0949 µM): 36.3%
- viability, T/C (second compound 3.16 µM, first compound 0.3 µM): 27.5%
- viability, T/C (second compound 10 µM, first compound 0.000949 µM): 97.4%
- viability, T/C (second compound 10 µM, first compound 0.003 µM): 87.9%
- viability, T/C (second compound 10 µM, first compound 0.00949 µM): 80.3%
- viability, T/C (second compound 10 µM, first compound 0.03 µM): 52.5%
- viability, T/C (second compound 10 µM, first compound 0.0949 µM): 36%
- viability, T/C (second compound 10 µM, first compound 0.3 µM): 33.9%

Structure (SMILES): COc1cc(C2c3cc4c(cc3C(OC3OC5COC(C)OC5C(O)C3O)C3COC(=O)C23)OCO4)cc(OC)c1O (stereo not given)
- viability, T/C (compound 0.00949 µM): 98.3% and 103%
- viability, T/C (compound 0.03 µM): 88.7% and 100%
- viability, T/C (compound 0.0949 µM): 36.7% and 63.7%
- viability, T/C (compound 0.3 µM): 16.6% and 28.2%
- viability, T/C (compound 0.949 µM): 9.58% and 15.6%
- viability, T/C (compound 3 µM): 8.64% and 9.05%
- IC50 (curve of compound): 71.5 nM and 151 nM

Structure (SMILES): Cn1ncnc1C1c2n[nH]c(=O)c3cc(F)cc(c23)NC1c1ccc(F)cc1 (stereo not given)
- viability, T/C (compound 0.000316 µM): 102% and 101%
- viability, T/C (compound 0.001 µM): 97.6% and 112%
- viability, T/C (compound 0.00316 µM): 95.6% and 91.6%
- viability, T/C (compound 0.01 µM): 96.3% and 103%
- viability, T/C (compound 0.0316 µM): 91.7% and 89.2%
- viability, T/C (compound 0.1 µM): 86.4% and 98%
- IC50 (curve of compound): > 100 nM

Structure (SMILES): COc1cc(Nc2ncc3c(n2)-c2ccc(Cl)cc2C(c2c(F)cccc2OC)=NC3)ccc1C(=O)O + NC1CC1c1ccc(-c2cccc(O)c2)cc1
- IC50 [1]: > 1000 nM
- IC50 [2]: > 1000 nM
- IC50 [3]: > 1000 nM
- IC50 [4]: > 1000 nM
- IC50 [5]: > 1000 nM
- viability, T/C [6]: 67.5%
- viability, T/C [7]: 73.7%
- viability, T/C [8]: 69.4%
- viability, T/C [9]: 67.2%
- viability, T/C [10]: 66.2%
- viability, T/C [11]: 61.2%
- viability, T/C [12]: 65.9%
- viability, T/C [13]: 78.9%
- viability, T/C [14]: 62.1%
- viability, T/C [15]: 72.1%
- viability, T/C [16]: 81.7%
- viability, T/C [17]: 59.3%
- viability, T/C [18]: 75.1%
- viability, T/C [19]: 71.4%
- viability, T/C [20]: 65.6%
- viability, T/C [21]: 82.5%
- viability, T/C [22]: 70.8%
- viability, T/C [23]: 71.7%
- viability, T/C [24]: 66.4%
- viability, T/C [25]: 72%
- viability, T/C [26]: 81.8%
- viability, T/C [27]: 72.2%
- viability, T/C [28]: 75.4%
- viability, T/C [29]: 66%
- viability, T/C [30]: 69.5%
- viability, T/C [31]: 69.5%
- viability, T/C [32]: 67.6%
- viability, T/C [33]: 63.1%
- viability, T/C [34]: 57.5%
- viability, T/C [35]: 71.6%

Structure (SMILES): COc1ccc([C@@H](O)c2cc(-c3ncnc4cc(N5CCOCC5)ccc34)c(F)cc2Cl)nn1 + NC1CCC(NC2CC2c2ccccc2)CC1
- IC50 [1]: 838 nM
- IC50 [2]: 973 nM
- IC50 [3]: 640 nM
- IC50 [4]: 795 nM
- IC50 [5]: 742 nM
- viability, T/C [8]: 81.5%
- viability, T/C [9]: 80.9%
- viability, T/C [10]: 66.5%
- viability, T/C [11]: 42.9%
- viability, T/C (second compound 0.1 µM, first compound 3.16 µM): 38.6%
- viability, T/C (second compound 0.1 µM, first compound 10 µM): 22.7%
- viability, T/C [14]: 74.4%
- viability, T/C [15]: 72.3%
- viability, T/C [16]: 65.3%
- viability, T/C [17]: 45%
- viability, T/C (second compound 0.316 µM, first compound 3.16 µM): 38.8%
- viability, T/C (second compound 0.316 µM, first compound 10 µM): 22.4%
- viability, T/C [20]: 77.4%
- viability, T/C [21]: 81.8%
- viability, T/C [22]: 57.8%
- viability, T/C [23]: 42.6%
- viability, T/C (second compound 1 µM, first compound 3.16 µM): 30.9%
- viability, T/C (second compound 1 µM, first compound 10 µM): 19.7%
- viability, T/C [26]: 80.7%
- viability, T/C [27]: 80.7%
- viability, T/C [28]: 65%
- viability, T/C [29]: 45.8%
- viability, T/C (second compound 3.16 µM, first compound 3.16 µM): 29.1%
- viability, T/C (second compound 3.16 µM, first compound 10 µM): 19.3%
- viability, T/C [32]: 80%
- viability, T/C [33]: 79.5%
- viability, T/C [34]: 64.5%
- viability, T/C [35]: 42.2%
- viability, T/C (second compound 10 µM, first compound 3.16 µM): 30.5%
- viability, T/C (second compound 10 µM, first compound 10 µM): 15.4%

Structure (SMILES): Nc1ccn(C2OC(CO)C(O)C2(F)F)c(=O)n1 (stereo not given)
- viability, T/C (compound 0.000949 µM): 106% and 95.4%
- viability, T/C (compound 0.003 µM): 112% and 89%
- viability, T/C (compound 0.00949 µM): 97.3% and 98.3%
- viability, T/C (compound 0.03 µM): 73.4% and 89.6%
- viability, T/C (compound 0.0949 µM): 43% and 50.5%
- viability, T/C (compound 0.3 µM): 12% and 17.5%
- IC50 (curve of compound): 71.1 nM and 96.5 nM

Structure (SMILES): CC[C@@]1(O)C(=O)OCc2c1cc1n(c2=O)Cc2cc3c(CN(C)C)c(O)ccc3nc2-1
- viability, T/C (compound 0.000316 µM): 108% and 106%
- viability, T/C (compound 0.001 µM): 109% and 103%
- viability, T/C (compound 0.00316 µM): 77.4% and 85.3%
- viability, T/C (compound 0.01 µM): 14.3% and 24.3%
- viability, T/C (compound 0.0316 µM): 7.49% and 11.1%
- viability, T/C (compound 0.1 µM): 6.01% and 6.55%
- IC50 (curve of compound): 5.21 nM and 6.17 nM

Structure (SMILES): NC1CC1c1ccc(-c2cccc(O)c2)cc1 (stereo not given)
- viability, T/C (compound 0.1 µM): 78.3%
- IC50 (compound alone, run of 02/21/2022): > 10000 nM
